The record followed here is patent US9447044B2, “Thioaryl derivatives as GPR120 agonists” (LG LIFE SCIENCES LTD., priority 2012, dated 2016).

Usually pEC50 stands for −log10 of the EC50, conventionally taken in molar units.

pEC50: −log10 of the molar value.

The first experiment concerns the target T1, hGPR120 (Homo sapiens, UniProt Q5NUL3).
T1 construct: expressed in transfected cells; host or cells: CHO-K1
T1 sequence (Q5NUL3 1-361): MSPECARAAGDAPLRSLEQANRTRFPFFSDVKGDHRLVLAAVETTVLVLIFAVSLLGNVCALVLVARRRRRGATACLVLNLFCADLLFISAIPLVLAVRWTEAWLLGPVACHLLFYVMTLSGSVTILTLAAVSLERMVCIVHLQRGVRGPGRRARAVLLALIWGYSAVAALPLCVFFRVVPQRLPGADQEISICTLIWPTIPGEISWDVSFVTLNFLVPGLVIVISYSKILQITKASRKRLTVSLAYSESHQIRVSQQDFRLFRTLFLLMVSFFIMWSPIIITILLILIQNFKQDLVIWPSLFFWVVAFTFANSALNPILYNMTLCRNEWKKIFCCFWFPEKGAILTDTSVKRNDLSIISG
As to the kind of experiment: Measurement of activity of GPR120 agonist (cell-based assay), calcium fluorescence. The following applies: CHO-K1 cells expressing Ga16 and hGPR120; Calcium 5 dye fluorescence; activity class. The procedure: CHO-K1 cells expressing Ga16 and hGPR120 were dispensed into each well of a 96-well plate (3×10^4 cells/100 μl/well) and then incubated in 5% CO2, 37° C. incubator for 18 hours. Each well was treated with 100 μl of Calcium 5 dye (Molecular Devices) solution including 2% DMSO and then incubated in 5% CO2, 37° C. incubator for 1 hour. Serially diluted GPR120 agonists were prepared to a final concentration of 0.5% DMSO in a 96-well plate. Each well was treated with 50 μl of the agonist compounds using Plexstation II, and then fluorescence was measured at Ex 485 nm, Em 525 nm.
Fluorescence increased by the serially diluted GPR120 agonists is calculated as a relative percent (%) value based on the fluorescence represented by the treatment of 0.1% DMSO only. […] The calculation of measurement was carried out by using statistical software (Prizm).
Activity is denoted based on the following criteria: A=>20 μM, B=[…], C=2˜0.2 μM, D=<0.2 μM
In the case of `O=C(O)C1CC1c1ccc(OCc2cccnc2SCC2CC2)c(F)c1` (single isomer, unassigned) [Example 165, 2-[4-(2-cyclopropylmethylsulfanyl-pyridin-3-ylmethoxy)-3-fluoro-phenyl]-cyclopropane carboxylic acid], the pEC50 is more than 6.70.

For the molecule `CC(C)Sc1cccc(COc2ccc(C3CC3C(=O)O)cc2F)n1` (single isomer, unassigned) [Example 166, 2-[3-fluoro-4-(6-isopropylsulfanyl-pyridin-2-ylmethoxy)-phenyl]-cyclopropane carboxylic acid], the pEC50 is more than 6.70.

`O=C(O)C1CC1c1ccc(OCc2cccc(SC3CCCC3)n2)c(F)c1` (single isomer, unassigned) [Example 168, 2-[4-(6-cyclopentylsulfanyl-pyridin-2-ylmethoxy)-3-fluoro-phenyl]-cyclopropane carboxylic acid]: the pEC50 was more than 6.70.

Turning to `O=C(O)C1CC1c1ccc(OCc2cccnc2SC2CCC2)c(F)c1` (single isomer, unassigned) [Example 169, 2-[4-(2-cyclobutylsulfanyl-pyridin-3-ylmethoxy)-3-fluoro-phenyl]-cyclopropane carboxylic acid], the pEC50 is more than 6.70.

For the molecule `CC(C)Sc1ncccc1COc1c(F)cc(CCC(=O)O)cc1F` [Example 1, 3-[3,5-difluoro-4-(2-isopropylsulfanyl-pyridin-3-ylmethoxy)-phenyl]-propionic acid], the pEC50 is more than 6.70.

Regarding `CC(C)Sc1ncccc1COc1ccc(CCC(=O)O)cc1` [Example 2, 3-[4-(2-isopropylsulfanyl-pyridin-3-ylmethoxy)-phenyl]-propionic acid], the pEC50 is more than 6.70.

On to `Cc1cnc(SC(C)C)c(COc2ccc(CC(C)C(=O)O)cc2)c1` (centres unmarked) [Example 3, 3-[4-(2-isopropylsulfanyl-5-methyl-pyridin-3-ylmethoxy)-phenyl]-2-methyl-propionic acid], for which the pEC50 is 5.70 to 6.70.

Consider `CC(C)Sc1ncccc1COc1ccc(CC(C)C(=O)O)cc1` (centres unmarked) [Example 4, 3-[4-(2-isopropylsulfanyl-pyridin-3-ylmethoxy)-phenyl]-2-methyl-propionic acid], for which the pEC50 is 5.70 to 6.70.

For `Cc1cnc(SC(C)C)c(COc2ccc(CCC(=O)O)cc2)c1` [Example 5, 3-[4-(2-isopropylsulfanyl-5-methyl-pyridin-3-ylmethoxy)-phenyl]-propionic acid], the pEC50 was more than 6.70.

Take `CC(C)Sc1ncccc1COc1ccc(CCC(=O)O)cc1F` [Example 6, 3-[3-fluoro-4-(2-isopropylsulfanyl-pyridin-3-ylmethoxy)-phenyl]-propionic acid]: the pEC50 was more than 6.70.

Turning to `CC(C)Sc1ncccc1COc1ccc(CCC(=O)O)c(F)c1` [Example 7, 3-[2-fluoro-4-(2-isopropylsulfanyl-pyridin-3-ylmethoxy)-phenyl]-propionic acid], the pEC50 was more than 6.70.

With `Cc1ccc(COc2c(F)cc(CCC(=O)O)cc2F)c(SC(C)C)n1` [Example 9, 3-[3,5-difluoro-4-(2-isopropylsulfanyl-6-methyl-pyridin-3-ylmethoxy)-phenyl]-propionic acid], the pEC50 is more than 6.70.

`CCSc1ncccc1COc1c(F)cc(CCC(=O)O)cc1F` [Example 10, 3-[4-(2-ethylsulfanyl-pyridin-3-ylmethoxy)-3,5-difluoro-phenyl]-propionic acid]: the pEC50 was more than 6.70.

For the molecule `CC(C)CSc1ncccc1COc1c(F)cc(CCC(=O)O)cc1F` [Example 11, 3-[3,5-difluoro-4-(2-isobutylsulfanyl-pyridin-3-ylmethoxy)-phenyl]-propionic acid], the pEC50 was more than 6.70.

On to `CC(C)Sc1ncccc1COc1ccc(CCCC(=O)O)cc1` [Example 13, 4-[4-(2-isopropylsulfanyl-pyridin-3-ylmethoxy)-phenyl]-butyric acid], for which the negative-log EC50 (pEC50) is more than 6.70.

With `CCCSc1ncccc1COc1c(F)cc(CCC(=O)O)cc1F` [Example 14, 3-[3,5-difluoro-4-(2-propylsulfanyl-pyridin-3-ylmethoxy)-phenyl]-propionic acid], the pEC50 was more than 6.70.

For the molecule `O=C(O)CCc1cc(F)c(OCc2cccnc2Sc2ccccc2)c(F)c1` [Example 15, 3-[3,5-difluoro-4-(2-phenylsulfanyl-pyridin-3-ylmethoxy)-phenyl]-propionic acid], the pEC50 is 5.70 to 6.70.

In the case of `CC(C)(C)Sc1ncccc1COc1c(F)cc(CCC(=O)O)cc1F` [Example 16, 3-[4-(2-t-butylsulfanyl-pyridin-3-ylmethoxy)-3,5-difluoro-phenyl]-propionic acid], the pEC50 was more than 6.70.

With `O=C(O)CCc1cc(F)c(OCc2cccnc2SCC2CC2)c(F)c1` [Example 17, 3-[4-(2-cyclopropylmethylsulfanyl-pyridin-3-ylmethoxy)-3,5-difluoro-phenyl]-propionic acid], the pEC50 is more than 6.70.

As to `O=C(O)CCc1cc(F)c(OCc2cccnc2SCC(F)(F)F)c(F)c1` [Example 18, 3-{3,5-difluoro-4-[2-(2,2,2-trifluoro-ethylsulfanyl)-pyridin-3-ylmethoxy]-phenyl}-propionic acid], the pEC50 was 5.70 to 6.70.

Consider `CCC(C)Sc1ncccc1COc1c(F)cc(CCC(=O)O)cc1F` (centres unmarked) [Example 19, 3-[4-(2-sec-butylsulfanyl-pyridin-3-ylmethoxy)-3,5-difluoro-phenyl]-propionic acid], for which the pEC50 is more than 6.70.

As to `CC(C)Sc1nccnc1COc1c(F)cc(CCC(=O)O)cc1F` [Example 20, 3-[3,5-difluoro-4-(3-isopropylsulfanyl-pyrazin-2-ylmethoxy)-phenyl]-propionic acid], the pEC50 is 5.70 to 6.70.

As for `O=C(O)CCc1cc(F)c(OCc2cccnc2SC2CCCCC2)c(F)c1` [Example 22, 3-[4-(2-cyclohexylsulfanyl-pyridin-3-ylmethoxy)-3,5-difluoro-phenyl]-propionic acid], the pEC50 was 5.70 to 6.70.

`O=C(O)CCc1cc(F)c(OCc2cccnc2SC2CCC2)c(F)c1` [Example 23, 3-[4-(2-cyclobutylsulfanyl-pyridin-3-ylmethoxy)-3,5-difluoro-phenyl]-propionic acid]: the pEC50 is more than 6.70.

Regarding `CC(C)Sc1nccc(COc2c(F)cc(CCC(=O)O)cc2F)n1` [Example 24, 3-[3,5-difluoro-4-(2-isopropylsulfanyl-pyrimidin-4-ylmethoxy)-phenyl]-propionic acid], the negative-log EC50 (pEC50) is 5.70 to 6.70.

Turning to `CC(Cc1ccc(OCc2cccnc2SC2CCCC2)cc1)C(=O)O` (centres unmarked) [Example 25, 3-[4-(2-cyclopentylsulfanyl-pyridin-3-ylmethoxy)-phenyl]-2-methyl-propionic acid], the pEC50 was more than 6.70.

Still in this experiment, the particulars now being: CHO-K1 cells expressing Ga16 and hGPR120; Calcium 5 dye fluorescence; numeric value.
Regarding `O=C(O)C1CC1c1ccc(OCc2cccc(SC3CCC3)n2)c(F)c1` (single isomer, unassigned) [Example 167, 2-[4-(6-cyclobutylsulfanyl-pyridin-2-ylmethoxy)-3-fluoro-phenyl]-cyclopropane carboxylic acid], the pEC50 was 8.22.

Consider `O=C(O)CCc1cc(F)c(OCc2cccnc2SC2CCCC2)c(F)c1` [Example 12, 3-[4-(2-cyclopentylsulfanyl-pyridin-3-ylmethoxy)-3,5-difluoro-phenyl]-propionic acid], for which the pEC50 is 7.24.

Regarding `O=C(O)CCCc1ccc(OCc2cccnc2SC2CCCC2)cc1` [Example 21, 4-[4-(2-cyclopentylsulfanyl-pyridin-3-ylmethoxy)-phenyl]-butyric acid], the pEC50 is 7.17.
